According to ChEMBL document CHEMBL6114954, “Design, synthesis and cytotoxic activity of novel lipophilic cationic derivatives of diosgenin and sarsasapogenin” (Bioorg Med Chem Lett, 2025):
The source made the active and inactive calls. The rule behind the calls is not given here.

Key:
A549 [1] = test: Cytotoxicity against human A549 cells; assay type: functional, cell-based
HepG2 = test: Cytotoxicity against human HepG2 cells; assay type: functional, cell-based
MDA-MB-231 = test: Cytotoxicity against human MDA-MB-231 cells; assay type: functional, cell-based
A549 [2] = test: Induction of mitochondrial membrane potential depolarization in human A549 cells at 1 uM by JC-1 staining based flow cytometry (reference value: 7.4 %); assay type: functional
A549 [3] = test: Induction of cell cycle arrest in human A549 cells assessed as accumulation at G0/G1 phase at 1 to 4 uM incubated for 24 hrs by PI staining based flow cytometry; assay type: functional; conditions: dose 1-4 µM
A549 [4] = test: Induction of apoptosis in human A549 cells assessed as increase in Bax level by Western blot analysis; assay type: functional, cell-based; conditions: dose <= 4.0 µM
A549 [5] = test: Induction of apoptosis in human A549 cells assessed as apoptosis ratio at 4 uM incubated for 24 hrs by Annexin V-FITC/PI staining based flow cytometry (reference value: 4.38 %); assay type: functional
A549 [6] = test: Induction of apoptosis in human A549 cells assessed as apoptosis ratio at 2 uM incubated for 24 hrs by Annexin V-FITC/PI staining based flow cytometry (reference value: 4.38 %); assay type: functional
A549 [7] = test: Induction of apoptosis in human A549 cells assessed as decrease in Bcl-2 level by Western blot analysis; assay type: functional, cell-based; conditions: dose <= 4.0 µM
A549 [8] = test: Induction of mitochondrial membrane potential depolarization in human A549 cells at 4 uM by JC-1 staining based flow cytometry (reference value: 7.4 %); assay type: functional
A549 [9] = test: Induction of intracellular ROS generation in human A549 cells incubated for 48 hrs by DCFH-DA staining based analysis; assay type: functional, cell-based; conditions: dose 1-4 µM
A549 [10] = test: Induction of apoptosis in human A549 cells assessed as decrease in pro-caspase 3 level upto 4 microM by Western blot analysis; assay type: functional, cell-based
A549 [11] = test: Induction of apoptosis in human A549 cells assessed as apoptosis ratio at 1 uM incubated for 24 hrs by Annexin V-FITC/PI staining based flow cytometry (reference value: 4.38 %); assay type: functional
A549 [12] = test: Induction of mitochondrial membrane potential depolarization in human A549 cells at 2 uM by JC-1 staining based flow cytometry (reference value: 7.4 %); assay type: functional

SMILES | IC50 (A549 [1]) [µM] | IC50 (HepG2) [µM] | IC50 (MDA-MB-231) [µM] | also measured
CC(=O)O[C@H]1CC[C@@]2(C)C(=CC[C@H]3[C@@H]4C[C@@H]5O[C@H](CC[C@@H](C)COC(=O)CCC[P+](c6ccccc6)(c6ccccc6)c6ccccc6)[C@@H](C)[C@@H]5[C@@]4(C)CC[C@@H]32)C1 | 6.06 | 23.7 | 31.5 | 
CC1CC[C@@]2(OC1)O[C@H]1C[C@H]3[C@@H]4CC=C5C[C@@H](OC(=O)CCCCC[P+](c6ccccc6)(c6ccccc6)c6ccccc6)CC[C@]5(C)[C@H]4CC[C@]3(C)[C@H]1[C@@H]2C (some centres not stated) | 1.24 | 4.19 | 5.49 | 
CC1CC[C@@]2(OC1)O[C@H]1C[C@H]3[C@@H]4CC=C5C[C@@H](OC(=O)CC[P+](c6ccccc6)(c6ccccc6)c6ccccc6)CC[C@]5(C)[C@H]4CC[C@]3(C)[C@H]1[C@@H]2C (some centres not stated) | 1.19 | 8.28 | 7.92 | 
CC(=O)O[C@H]1CC[C@@]2(C)C(=CC[C@H]3[C@@H]4C[C@@H]5O[C@H](CC[C@@H](C)COC(=O)CCCCC[P+](c6ccccc6)(c6ccccc6)c6ccccc6)[C@@H](C)[C@@H]5[C@@]4(C)CC[C@@H]32)C1 | 5.63 | 30.1 | 36.6 | 
CC[N+]1(CCCC(=O)OC[C@H](C)CC[C@H]2O[C@H]3C[C@H]4[C@@H]5CC=C6C[C@@H](OC(C)=O)CC[C@]6(C)[C@H]5CC[C@]4(C)[C@H]3[C@@H]2C)CCCCC1 | 18 | > 50 | > 50 | 
CC[N+]1(CCCC(=O)OC[C@H](C)CC[C@H]2O[C@H]3C[C@H]4[C@@H]5CC=C6C[C@@H](OC(C)=O)CC[C@]6(C)[C@H]5CC[C@]4(C)[C@H]3[C@@H]2C)CCOCC1 | 17.4 | > 50 | > 50 | 
CC(=O)O[C@H]1CC[C@@]2(C)C(=CC[C@H]3[C@@H]4C[C@@H]5O[C@H](CC[C@@H](C)COC(=O)C[P+](c6ccccc6)(c6ccccc6)c6ccccc6)[C@@H](C)[C@@H]5[C@@]4(C)CC[C@@H]32)C1 | 10.8 | 25.4 | 32 | 
CC(=O)O[C@H]1CC[C@@]2(C)C(=CC[C@H]3[C@@H]4C[C@@H]5O[C@H](CC[C@@H](C)COC(=O)CC[P+](c6ccccc6)(c6ccccc6)c6ccccc6)[C@@H](C)[C@@H]5[C@@]4(C)CC[C@@H]32)C1 | 5.99 | 26.2 | 38.5 | 
C[C@@H]1CC[C@@]2(OC1)O[C@H]1C[C@H]3[C@@H]4CC[C@@H]5C[C@@H](O)CC[C@]5(C)[C@H]4CC[C@]3(C)[C@H]1[C@@H]2C | > 50 | > 50 | > 50 | 
CC1CC[C@@]2(OC1)O[C@H]1C[C@H]3[C@@H]4CC[C@@H]5C[C@@H](OC(=O)C[P+](c6ccccc6)(c6ccccc6)c6ccccc6)CC[C@]5(C)[C@H]4CC[C@]3(C)[C@H]1[C@@H]2C (some centres not stated) | 5.23 | 22.6 | 42.9 | 
CC[N+]1(CCCC(=O)O[C@H]2CC[C@@]3(C)C(=CC[C@H]4[C@@H]5C[C@@H]6O[C@]7(CCC(C)CO7)[C@@H](C)[C@@H]6[C@@]5(C)CC[C@@H]43)C2)CCOCC1 (some centres not stated) | 29.1 | 27.9 | 41.6 | 
CC[N+]1(CCCC(=O)O[C@H]2CC[C@@]3(C)C(=CC[C@H]4[C@@H]5C[C@@H]6O[C@]7(CCC(C)CO7)[C@@H](C)[C@@H]6[C@@]5(C)CC[C@@H]43)C2)CCNCC1 (some centres not stated) | 18.6 | 33.7 | 49.2 | 
CC[N+]1(CCCC(=O)O[C@H]2CC[C@@]3(C)C(=CC[C@H]4[C@@H]5C[C@@H]6O[C@]7(CCC(C)CO7)[C@@H](C)[C@@H]6[C@@]5(C)CC[C@@H]43)C2)CCc2ccccc2C1 (some centres not stated) | 8.43 | 18.8 | 20.6 | 
CC[N+]1(CCCC(=O)OC[C@H](C)CC[C@H]2O[C@H]3C[C@H]4[C@@H]5CC=C6C[C@@H](OC(C)=O)CC[C@]6(C)[C@H]5CC[C@]4(C)[C@H]3[C@@H]2C)CCNCC1 | 13.7 | 34.6 | 36.4 | 
CC[N+]1(CCCC(=O)O[C@H]2CC[C@@]3(C)[C@H](CC[C@@H]4[C@@H]3CC[C@]3(C)[C@@H]5[C@H](C[C@@H]43)O[C@]3(CCC(C)CO3)[C@H]5C)C2)CCOCC1 (some centres not stated) | 18.7 | 22.6 | 34.8 | 
CC1CC[C@@]2(OC1)O[C@H]1C[C@H]3[C@@H]4CC[C@@H]5C[C@@H](OC(=O)CCC[P+](c6ccccc6)(c6ccccc6)c6ccccc6)CC[C@]5(C)[C@H]4CC[C@]3(C)[C@H]1[C@@H]2C (some centres not stated) | 1 | 3.44 | 3.62 | 
CC[N+]1(CCCC(=O)O[C@H]2CC[C@@]3(C)[C@H](CC[C@@H]4[C@@H]3CC[C@]3(C)[C@@H]5[C@H](C[C@@H]43)O[C@]3(CCC(C)CO3)[C@H]5C)C2)CCCC1 (some centres not stated) | 15.4 | 9.08 | 16.2 | 
CC[N+]1(CCCC(=O)OC[C@H](C)CC[C@H]2O[C@H]3C[C@H]4[C@@H]5CC=C6C[C@@H](OC(C)=O)CC[C@]6(C)[C@H]5CC[C@]4(C)[C@H]3[C@@H]2C)CCCC1 | 20.7 | > 50 | > 50 | 
CC1CC[C@@]2(OC1)O[C@H]1C[C@H]3[C@@H]4CC=C5C[C@@H](OC(=O)C[P+](c6ccccc6)(c6ccccc6)c6ccccc6)CC[C@]5(C)[C@H]4CC[C@]3(C)[C@H]1[C@@H]2C (some centres not stated) | 15.6 | 22.2 | 33.3 | 
CC1CC[C@@]2(OC1)O[C@H]1C[C@H]3[C@@H]4CC[C@@H]5C[C@@H](OC(=O)CCCCC[P+](c6ccccc6)(c6ccccc6)c6ccccc6)CC[C@]5(C)[C@H]4CC[C@]3(C)[C@H]1[C@@H]2C (some centres not stated) | 1.3 | 4.18 | 5.01 | 
CC[N+]1(CCCC(=O)O[C@H]2CC[C@@]3(C)C(=CC[C@H]4[C@@H]5C[C@@H]6O[C@]7(CCC(C)CO7)[C@@H](C)[C@@H]6[C@@]5(C)CC[C@@H]43)C2)CCCC1 (some centres not stated) | 16.2 | 16.8 | 26.4 | 
CC1CC[C@@]2(OC1)O[C@H]1C[C@H]3[C@@H]4CC[C@@H]5C[C@@H](OC(=O)CC[P+](c6ccccc6)(c6ccccc6)c6ccccc6)CC[C@]5(C)[C@H]4CC[C@]3(C)[C@H]1[C@@H]2C (some centres not stated) | 1.09 | 3.34 | 4.26 | 
CC1CC[C@@]2(OC1)O[C@H]1C[C@H]3[C@@H]4CC=C5C[C@@H](OC(=O)CCC[P+](c6ccccc6)(c6ccccc6)c6ccccc6)CC[C@]5(C)[C@H]4CC[C@]3(C)[C@H]1[C@@H]2C.[Br-] (some centres not stated) | 0.95 | 3.95 | 4.16 | Activity (A549 [2]): 17.4%; Activity (A549 [3]): Active; Activity (A549 [4]): Dose-dependent-effect; Activity (A549 [5]): 48.2%; Activity (A549 [6]): 23.95%; Activity (A549 [7]): Dose-dependent-effect; Activity (A549 [8]): 91.2%; Activity (A549 [9]): Dose-dependent-effect; Activity (A549 [10]): Active; Activity (A549 [11]): 8.51%; Activity (A549 [12]): 40.6%
CC[N+]1(CCCC(=O)OC[C@H](C)CC[C@H]2O[C@H]3C[C@H]4[C@@H]5CC=C6C[C@@H](OC(C)=O)CC[C@]6(C)[C@H]5CC[C@]4(C)[C@H]3[C@@H]2C)CCc2ccccc2C1 (some centres not stated) | 14.4 | 33.5 | 34.8 | 
CC[N+]1(CCCC(=O)O[C@H]2CC[C@@]3(C)[C@H](CC[C@@H]4[C@@H]3CC[C@]3(C)[C@@H]5[C@H](C[C@@H]43)O[C@]3(CCC(C)CO3)[C@H]5C)C2)CCCCC1 (some centres not stated) | 14.6 | 19.9 | 37.8 | 
CC[N+]1(CCCC(=O)O[C@H]2CC[C@@]3(C)C(=CC[C@H]4[C@@H]5C[C@@H]6O[C@]7(CCC(C)CO7)[C@@H](C)[C@@H]6[C@@]5(C)CC[C@@H]43)C2)CCCCC1 (some centres not stated) | 15.4 | 19.2 | 40.5 | 
CC[N+]1(CCCC(=O)O[C@H]2CC[C@@]3(C)[C@H](CC[C@@H]4[C@@H]3CC[C@]3(C)[C@@H]5[C@H](C[C@@H]43)O[C@]3(CCC(C)CO3)[C@H]5C)C2)CCNCC1 (some centres not stated) | 26.1 | > 50 | > 50 | 
CC[N+]1(CCCC(=O)O[C@H]2CC[C@@]3(C)[C@H](CC[C@@H]4[C@@H]3CC[C@]3(C)[C@@H]5[C@H](C[C@@H]43)O[C@]3(CCC(C)CO3)[C@H]5C)C2)CCc2ccccc2C1 (some centres not stated) | 10.8 | 9.52 | 13.8 | 
C[C@@H]1CC[C@@]2(OC1)O[C@H]1C[C@H]3[C@@H]4CC=C5C[C@@H](O)CC[C@]5(C)[C@H]4CC[C@]3(C)[C@H]1[C@@H]2C [DISOGENIN] |  | > 50 | > 50 | 
